Results: patent US20020013300A1, “Methods for improving size and appearance of a wound” (Avocet Polymer Technologies, Inc., priority 2000, published 2002)

Tests used:
Format in all cases: in vivo, human patient
[1] = system: post-operative scar; test: Example 4, Patient two: treatment of a raised post-operative leg scar
Method: The patient's chief complaint was difficulty sleeping or resting because of a post-operative orthopoedic right leg scar that was irritated and raised. The patient underwent a medical history and physical examination. Notable medication use was a 325 mg tablet of acetylsalicylic acid orally administered to prevent thrombo-embolic post-operative complications. On examination, a 15 cm raised erythematous post-operative scar of 15 cm length and approximately 3 mm width was noted, with exquisite sensitivity to examination and evidence of excoriation. At the time of exam, the patient denied itching. […] To avoid the use of adhesives, an ace wrap bandage was used to hold the gel—salicylic acid combination in place. Gel plus salicylic acid co-administration was monitored by a daily patient diary. Photographs and patient self report were used to assess treatment results. Itching complaints were followed using a 10 point itching scale. Pre-treatment itching scale was entered as 0, reflecting onset of aspirin use prior therapy. RESULTS: Compliance with treatment regimen was documented daily. […] Itching symptoms were reported at 0.

[2] = system: post-operative caesarean section scar; test: Example 5, Patient one: treatment of an itchy caesarean section scar
Source text: The patient's chief complaint was a burning itchy sensation in a closed post-operative caesarean section scar. The patient underwent a medical history and physical examination. On examination, an 18 cm irritated lower abdominal vertical healed incision was noted, with evidence of excoriation. […] To avoid the use of adhesives, a control top stretch panty was used to hold the gel—salicylic acid combination in place. Gel plus salicylic acid co-administration was monitored by a daily patient diary. Photographs and patient self report were followed to assess treatment results. Itching complaints were followed using a 10 point itching scale. Pre-treatment itching scale was entered as 6, with the comment that itching bothered the patient “severely, badly.” RESULTS: Compliance with treatment regimen was documented daily. […] On examination, the scar contours appeared to have become more regular and scar color faded.

[3] = system: hypertrophic scar; test: Example 2, Patient three: treatment of a tender hypertrophic facial scar; settings: 7 weeks
Source text: The patient's chief complaint was irritation with daily grooming and itching from scars located on the face. The patient underwent a medical history and physical examination. […] Clinical progress was followed using photographic and ultrasound imaging as well as a patient self-report. […] Color changes were documented by photographs. Ultrasound images documented the scar size change.

[4] = system: hypertrophic scar; test: Example 3, Patient 25: treatment of an irritated hypertrophic forearm scar
Method: The patient's chief complaint was an irritated scar of the forearm for more than two years. The patient underwent a medical history and physical examination. On examination, a raised irregularly contoured errythematous hypertrophic scar was observed. Materials and Methods: After review of clinical options, the patient was prescribed nabumetone for 4 weeks. […] The combination of nabumetone and hydrogel was used for 15-18 hours each day for a period of 8 weeks. Clinical progress was followed using photographic imaging as well as patient self-report.

[5] = 2% salicylic acid under hydrogel, 12 weeks
[6] = 2% salicylic acid under hydrogel
[7] = nabumetone, then nabumetone + hydrogel 8 weeks

O=C(O)c1ccccc1O [salicylic acid]
shortened measure of the scar, scar contracture (photographs) ([1]; 2% salicylic acid topically under AVOGEL hydrogel 15-18 h/day, 12 weeks, patient also on oral acetylsalicylic acid 325 mg): 25%
evidence of itching or irritation on examination [1, 5]: No evidence of itching or irritation
patient report [1, 5]: improved sleep with reduction in scar irritation
scar color on examination [1, 5]: lighter than in pre-treatment
scar contours on examination [1, 5]: flattened
itching symptoms (itching scale) ([1]; 10 point scale, pre-treatment entered as 0 (aspirin use prior to therapy)): 0
redness and local irritation at scar site (photographs) ([2]; 2% salicylic acid topically under AVOGEL hydrogel 15-18 h/day, 12 weeks): reduced redness and local irritation
evidence of itching or irritation on examination [2, 6]: No evidence of itching or irritation
scar color on examination [2, 6]: faded
scar contours on examination [2, 6]: more regular
itching symptoms (itching scale) ([2]; 10 point scale, 4th week of treatment, pre-treatment 6): 3
scar irritation and pruritis ([2]; end of treatment after 20 weeks): reduced to infrequent

COc1ccc2cc(CCC(C)=O)ccc2c1 [nabumetone, 4-(6-methoxy-2-naphthalenyl)-2-butanone]
patient self-report ([3]; nabumetone + hydrogel): improved comfort
redness and tenderness on exam ([3]; nabumetone + hydrogel): less redness and tenderness
scar color (photographs) ([3]; nabumetone + hydrogel): revert to a color tone more closely matching adjacent skin
reduction in scar size (examination, ultrasound) ([3]; oral nabumetone 250-500 mg daily co-administered with AVOGEL hydrogel sheeting 15-18 h/day): 50%
irregular contours [4, 7]: faded
patient self-report [4, 7]: improved comfort
scar color on examination [4, 7]: reverted in color to skin tones closely matching adjacent skin
scar height on examination ([4]; oral nabumetone 250 mg daily 4 weeks, then with AVOGEL hydrogel sheeting 15-18 h/day for 8 weeks): became flatter
scar visibility on photographic documentation ([4]; treatment day 60): not observable
